# Results from patent US7799969B2, “Methods for cloning rats by nuclear transfer” (Institut National de la Recherche Agronomique, priority 2003, dated 2010).
# Where a SMILES comes first, the peptide text is derived from it. The star is where a group is joined. Cbz = O=C(OCc1ccccc1)*
# Assays:
# rat ovocytes [1] = assay: Reversibility of the inhibition of spontaneous activation of rat ovocytes (parthenogenetic development after removal of MG132 and activation by butyrolactone); format: cell-based; conditions: repeats n = 5
# [2] = test system: rat embryos reconstructed from ovocytes; assay: Rate of foetal development of rat embryos reconstructed from ovocytes previously exposed to a proteasome inhibitor; format: in vivo
# From the text: By the method according to the invention, the ovocytes are transferred to a medium not containing inhibitor(s) right before conducting the reconstruction of the embryos. This makes it possible to avoid direct exposure of the nucleus donor cells to their action. Reconstruction of the embryos must then be carried out very rapidly before proteasome becomes functional again in order to avoid a premature activation of the ovocyte. The purpose of this rapid reconstruction is to […] the period during which the condensed chromatin of the nucleus is directly exposed to the ovocyte factors which make possible the reprogramming of the activity of the foreign nucleus. It then becomes possible to reconstitute a greater number of embryos during a given time period, and therefore to increase the number of transplanted embryos per recipient female for in vivo development. This possibility makes it possible to get around the low rate of implantation observed in the rat after transfer of a nucleus (table 4).
# These foetuses may give rise to viable baby rats (table 4).
# Set up the retention and enucleation-injection pipettes on their respective pipette holders. • 5. Position the pipettes so that their ends are horizontal, i.e., parallel to the coverglass of the micromanipulation chamber, and facing each other. • 6. Transfer the ovocytes and the cells to the micro-injection chamber by means of a pipette for manipulation of the ovocytes. • 7. Maintain an ovocyte on the maintenance pipette in order that the deformation of the plasma membrane under which the ovocyte metaphase is situated, is situated between 2 and 3 hr or between 3 and 4 hr. • 8. Apply the enucleation-injection pipette to the pellucid area at 3 hr. Verify that the pipette is in exactly the same plane as the pellucid area. Gently aspirate the pellucid area and activate the piezo system (setting 1) to puncture it. When the system is perfectly adjusted the pellucid area is punctured in a few seconds according to a perfect punch. • 9. Next, aspirate a cell whose morphology corresponds to the sought-for criteria into the enucleation-injection pipette and break its plasma membrane by several to-and-fro's in the pipette or by means of the piezo-Drill (a few impulsions are sufficient at setting 2). Maintain the cell close to the end of the micropipette. • 10. Penetrate into the perivitelline space of the ovocyte through the previously punctured orifice, apply the pipette against the plasma membrane and push the donor cell back to the end of the pipette and then push the pipette in up to the opposite end of the ovocyte without, however, reaching the plasma membrane opposite. • 11. Break the plasma membrane by means of one or more impulsions (1 to 3) of the Piezo-Drill (setting 2). • 12. Inject the cell into the cytoplasm of the ovocyte with the minimum possible medium. • 13. Gently withdraw the enucleation-injection pipette and re-close the ovocyte by aspirating the 2 ends of the broken plasma membrane and the ovocyte metaphase (enucleation). • 14. Transfer the reconstructed embryos into a micro-drop (50 μl) of RECMB2. • 15. Ovocyte activation is triggered or prolonged by transfer of the ovocytes to a micro-drop (20 μl) of RECMB2-BLI for a duration of activation generally between 1 and 2 hr. • 16. The ovocytes are then rinsed in 4-5 drops (50 μl) of RECMB2 to be cultured in the same medium while waiting to be transferred into a pseudogestating female or to prolong in vitro culture.
# rat ovocytes [3] = assay: Inhibition of spontaneous activation of rat ovocytes by exposure to a proteasome inhibitor; format: cell-based; conditions: repeats n = 2
# From the text: The method according to the invention presents the advantage of strictly and reversibly controlling the ovocyte activation process by acting upstream of the biochemical processes that control activation and by preventing the degradation of the macromolecular compounds responsible for arrest of the ovocyte in metaphase and in particular of the cyclins. In order to do this, the ovocyte is exposed in vitro to one or more inhibitor(s) of proteasome, a key organelle of the cell: inhibition of its proteolytic action on the cyclins makes it possible to maintain an elevated level of MPF kinasic activity which determines metaphase arrest. The majority of ovocytes may thus be maintained in metaphase of the second meiotic division for several hours after their harvest (table 1).
# Solutions: • Medium M2 (Hogan & al, 1994 In: Manipulating the Mouse Embryo) • Medium RECMB2*-MG132 (MG132=1.25 μM) • Medium M2-Hyaluronidase-MG132 (MG132=1.25 μM; Hyaluronidase=2.5 mg/ml) • Medium M2-MG132 (MG132=5.00 μM) • *RECMB2=medium mRlECM-BSA (Oh & al. (1998) Biol. Reprod.), with BSA=4 mg/ml and NaCl=100-130 mM.
# 10. The “decoronised” ovocytes are transferred to a drop of culture medium RECMB2-MG132.
# [4] = reconstructed embryos transferred to recipient females
smiles,measurement,setting,value
"CC(C)C[C@@H](C=O)NC(=O)[C@H](CC(C)C)NC(=O)[C@H](CC(C)C)NC(=O)OCc1ccccc1 [MG132, peptide aldehyde Cbz-LLL-H] (Cbz-Leu-Leu-Leu-aldehyde)",% of embryos (parthenogenetic development at the morula stage),"rat ovocytes [1]; t = 0 removal of MG132, exposure to MG132 for 120 min, activation by butyrolactone",0% (0/71)
same,% of embryos (parthenogenetic development at the morula stage),"rat ovocytes [1]; t = 120 min, after removal of MG132 and induction of activation by butyrolactone",45.9% (34/74)
same,No. of foetuses (%) total,[2]; % in brackets,55.9%
same,No. of foetuses (%) viable,[2]; % in brackets,47.0%
same,pregnant recipients between D12-22,[2]; number of recipient females,11
same,living at D12-D14,[2]; of the viable foetuses,11
same,living rats at term,[2]; of the viable foetuses,5
same,No. of foetuses total,"[2]; rat, in vivo",19
same,No. of foetuses viable,"[2]; rat, in vivo",16
same,implantation (%),[2]; [4],5.4%
same,implantation (number),[2]; [4],34
same,% of activated ovocytes after collection,rat ovocytes [3]; t = 0,0% (0/68)
same,% of activated ovocytes after collection,rat ovocytes [3]; t = 210 m after collection,33.8% (23/68)
